Reference: patent EP4076430B1, “A METHOD OF TREATING NONALCOHOLIC STEATOHEPATITIS” (Vector Vitale IP LLC, priority 2019, dated 2021)
Values joined by “and” are separate entries in the source; they are usually repeats but may differ in a detail not shown here. Identical values can stand only once. “Also recorded” adds a separate entry of the source.

Experiments:
[1] = Accumulation of metals in liver and kidney tissues after intraperitoneal administration; format: in vivo, rats; settings: day 1 and day 7 after discontinuation of the substances
Description: The total kidney, liver and muscle homogenates were prepared as follows. Organ excision and homogenization were carried out at a temperature of 1-4°C. Homogenization of tissues was carried out in 50 mM Tris-HCl buffer (pH 7.4) which contained 140 mM NaCl, 1 mM EDTA. The volume of the used buffer in ml was 5 times larger than the mass of isolated organs in grams. The isolated liver was perfused with chilled saline (0.9% NaCl) via the portal vein using a syringe. The minced liver was transferred to a homogenizer with a finely ground Teflon pestle and homogenized in chilled buffer. An isolated pair of kidneys was perfused with chilled saline, released from adipose tissue and minced with scissors. The minced tissue was transferred to a homogenizer with a finely ground Teflon pestle and homogenized in chilled buffer. The total kidney and liver homogenates were centrifuged at 600 g for 15 minutes. The liquid was decanted after the mince settled down and was centrifuged again at 15,000 g for 15 minutes. These two procedures allowed us to get rid of nuclear and mitochondrial debris. Aliquots of the prepared homogenates were frozen in nitrogen (Rybalchenko V.K., Koganov M.M. Structure and function of membrane 1988. - 312 pp).

[2] = Glucose tolerance test; format: in vivo, rats; parameters: Glucose, 0 min (1 h after effector administration): unit not given here; settings: for glucose levels in the glucose tolerance test compared with the control group: 5 mg/kg in 2 ml, glucose 3 g/kg
Source text: 5 animals were used within the same experimental group.

[3] = tested on: insulin; assay: Serum insulin level after intraperitoneal administration (ELISA); format: in vivo; settings: intact rats, 3750 µg of zinc per 1 kg, 7 injections every other day
Description: The current dose was calculated by zinc.
The optical density was measured at 492 nm.

[4] = Serum albumin in obesity model; format: in vivo, rats; settings: obese animals treated
Source text: (§1) Test kit // Pliva-Lachema Diagnostika. - 2008.

[5] = tested on: pancreas; assay: Morpho-functional analysis of pancreatic tissue in obesity model; format: in vivo, rats
Source text: After fixation, the pieces were rinsed in tap water. Then the material was dehydrated.
Dried preparations were stained with hematoxylin and eosin.

[6] = tested on: islets of Langerhans; assay: Area of islets of Langerhans after intraperitoneal administration (microscopy); format: in vivo; settings: intact rats, 3750 µg of zinc per 1 kg, day 7 after the last administration
Description: (§6) Animals are placed in cages, 4 per cage, with free access to food/water. […] Administration is performed every other day, in the amount of 7 injections per animal (intraperitoneal method of drug administration). The dose of the drug injected to each animal was calculated on the basis of the ratio: 3750 µg of zinc per 1 kg of animal body weight. After the last injection, a half of the animals are maintained on hunger (for 12 hours) with free access to water. Upon expiration of this time period, the animals are taken out of the experiment. The second half of the animals continues to have free access to food/water for a further 7 days. On day 6 after the last injection, the animals are maintained on hunger (for 12 hours) with free access to water. Upon expiration of this time period, the animals are taken out of the experiment.

[7] = tested on: alkaline phosphatase; assay: Serum alkaline phosphatase activity in obesity model; format: in vivo; settings: high-fat diet rats treated
Source text: as §1
The alkaline phosphatase activity was expressed in relative units.

[8] = tested on: catalase; assay: Serum catalase activity, obesity model; format: in vivo, rats; settings: DIO+zinc: high-fat diet, intragastrically every third day
Source text: Korolyuk M.A. et al., Lab. Business. - 1988. - No. 1. - P. 44-67.

[9] = tested on: liver; assay: Morpho-functional analysis of liver tissue (hepatocyte morphometry, fibrosis) in obesity model; format: in vivo, rats; settings: Van Gieson's staining
[10] = Anthropometric values, amount and calorie content of food in high-fat diet induced obesity; settings: 4.5 mg zinc aspartate intragastrically every third day; for BMI: week 10
Description: White non-pedigree rats with an initial weight of 195-205±10 g were used in the experiment. The animals were maintained in an accredited vivarium of the Academic and Research Center "Institute of Biology and Medicine" of Taras Shevchenko National University of Kyiv in accordance with the Standard rules on the arrangement, equipment and maintenance of experimental biological clinics (vivariums). The study was carried out in compliance with international standards and recommendations of the European Convention for the Protection of Vertebrate Animals used for Experimental and other Scientific Purposes (Strasbourg, 18/03/1986) and approved by the Bioethics Commission of the Academic and Research Center "Institute of Biology and Medicine".
Before the start of the experiment, animals were maintained on a standard diet of the vivarium. To induce obesity in experimental animals, they were fed high-fat diet which consisted of standard feed (60%), lard (10%), chicken eggs (10%), sucrose (9%), peanuts (5%), dry milk (5%) and sunflower oil (1%) (1%) (see X. H. Shen et al., Exp. Biol. and Med. 235: 47-51 (2010)). […] For the preparation of composition claimed standard Dulbecco's phosphate-buffered saline from (specified a manufacturer) (based on deuterium-depleted water Langway) as a diluent (liquid vehicle) was used.
Animals in all groups were weighed once a week after an overnight fast. The amount of feed to be consumed by the animals was determined daily. At the end of a 10-week period of the development of obesity models, 24 hours after the last administration of the zinc isotope solution, animals were removed from their cages and decapitated.
The body mass index (BMI) (the ratio of body weight (g) to the square of body length (cm^2)) was calculated at the end of the experiment.
Animals with an initial weight of 195-205±10 g maintained on the standard diet of the vivarium before performing obesity models were used in the experiments. To induce obesity in experimental animals, they were fed high-fat diet which consisted of standard feed (60%), lard (10%), chicken eggs (10%), sucrose (9%), peanuts (5%), dry milk (5%) and sunflower oil (1%), Shen X. et al., Experimental Biology and Medicine. - 2010. - ? […] The first 4 weeks of the experiment, all animals were maintained on a high-fat diet, after which they were randomly divided into two experimental groups: • animals in the first group (obesity) continued to eat their high-fat diet and had free access to water for the next 6 weeks of the experiment. • animals in the second group (obesity + solution of Zn-64 stable isotope in aspartate form) also followed their high-fat diet and had free access to water for the next 6 weeks of the experiment. But every third day and until the end of the experiment they were intragastrically administered a solution of Zn-64 stable isotope in aspartate form.
Animals in all groups were weighed once a week after an overnight fast. The amount of feed to be consumed by the animals was determined daily.

[11] = tested on: central serotonergic system (brain); assay: Indicators of the central serotonergic system in brain homogenate, obesity model; format: in vivo, rats; settings: intragastrically every third day
Source text: (§2) The tissue : buffer ratio was 1:10.
(§3) The samples were reprecipitated by centrifugation. […]
(§4) The supernatant was used in further studies.

[12] = tested on: superoxide dismutase; assay: Serum superoxide dismutase activity, obesity model; format: in vivo, rats; settings: DIO+zinc: high-fat diet, intragastrically every third day
Description: To measure superoxide dismutase activity, a method based on the ability of this enzyme to inhibit auto-oxidation of adrenaline was used.
Serum aliquots were added to microplate wells containing 0.2M bicarbonate buffer, pH 10. The reaction was initiated by adding 0.1% adrenaline solution in each well. A relevant volume of buffer was added to the "blank" wells to which no test sample was added. The optical density was measured at a wavelength of 347 nm using a µQuant microplate spectrophotometer (BioTek Instruments) at the 4th and 8th minute after adrenaline was added to the wells. The enzyme activity was expressed in relative units/min/mg.

[13] = tested on: lipid metabolism; assay: Serum triglycerides, cholesterol and free fatty acids in obesity model; format: in vivo, rats; settings: high-fat diet, 2.25 mg/ml zinc aspartate intragastrically in 2 ml
Source text: To this end, high-fat diet obesity was induced in experimental animals as described in Example 2.

[14] = tested on: products of oxidative modification of proteins; assay: Serum levels of products of oxidative modification of proteins in obesity model; format: in vivo, rats; settings: DIO+zinc: high-fat diet, intragastrically every third day
Description: (§5) Animal serum was prepared from whole blood. […] Samples were centrifuged for 15 min at 2500 g.
Proteins were precipitated by adding a 20% TCA solution.

[15] = tested on: pro- and anti-inflammatory cytokines; assay: Cytokine profile in adipose tissue in obesity model (immunoenzyme method); format: in vivo, rats; settings: intragastrically every third day
Description: Adipose tissue was crushed using cold scissors then transferred to a homogenizer with a loose-fitting Teflon pestle. […] Primary homogenate thus obtained was centrifuged at 600 g for 15 minutes. The supernatant was carefully collected and re-centrifuged at 15,000 g for 15 minutes. The supernatant was then frozen and stored at -80°C until the experiments.
The antigen solution, previously diluted with 0.1 M NaHCO3 buffer, pH 9.6, to a concentration of 10 µg/ml, was incubated in the plate wells for 12 hours at 4°C. Unbound material was removed by washing the wells three times with TBS buffer, first with 0.05% Tween-20, then without Tween-20. Non-specific binding sites were blocked by adding a solution of 5% skim milk or a solution of 1% bovine serum albumin to the plate wells and incubating them for 60 minutes at 37°C. After incubation, the wells were washed three times with TBS, first with 0.05% Tween-20, then without Tween-20. Primary antibodies were diluted in TBS in accordance with the manufacturer's instructions and incubated with the antigen for 60 min at 37°C. After washing with TBS working buffer, first with the addition of 0.05% Tween-20, then without Tween-20, the conjugate of secondary antibodies was added to the wells and incubated for 60 min at 37°C. As with the primary antibodies, secondary antibodies were diluted in TBS in accordance with the manufacturer's instructions. After the washing procedure, phenyldiamine dihydrochloride as substrate in 0.05M phosphate-citrate buffer was added to each well, followed by the addition of 0.3% hydrogen peroxide. After 10 minutes, the reaction time needed for development, 2.5 n H2SO4 was added.
The absorbance at a wavelength of 492 nm was measured using a µQuant microplate spectrophotometer (BioTek Instruments).

[16] = Serum glucose concentration in obesity model; format: in vivo, rats; settings: intragastrically every third day
Source text: The glucose concentration was expressed in mmol/L.

[17] = tested on: peripheral serotonergic system (duodenum); assay: Indicators of the peripheral serotonergic system in duodenal homogenate, obesity model; format: in vivo, rats; settings: intragastrically every third day
Source text: as §2, §3, §4

[18] = tested on: pro- and anti-inflammatory cytokines; assay: Serum cytokine profile in obesity model (immunoenzyme method); format: in vivo, rats; settings: intragastrically every third day
Description: as §5

[19] = Body weight after intraperitoneal administration; format: in vivo; settings: intact rats, 3750 µg of zinc per 1 kg, 7 injections every other day
Description: as §6

[20] = tested on: tryptophan, serotonin, monoamine oxidase; assay: Serum tryptophan, serotonin and monoamine oxidase activity, obesity model; format: in vivo, rats; settings: intragastrically every third day
Description: as §5
The samples were reprecipitated by centrifugation.
University. Medicine. - 2000. - 1, No. 494. - P. 40-43.

## CC(=O)[O-].CC(=O)[O-].[Zn+2] [Zn acetate, Zn(CH3COO)2, reference compound]
[1]
  accumulation of zinc in the kidney and liver tissues: significantly increased
[2]
  glucose levels in the glucose tolerance test compared with the control group: also dropped, though not so strongly
[2]; individual animals, dose: 5 mg/kg in a volume of 2 ml, fast overnight, 5 mg/kg
  Glucose, 0 min (1 h after effector administration): 4.6 and 5.2 (2×) and 4.9 and 5.1
[2]; individual animals, dose: 5 mg/kg in a volume of 2 ml, glucose 3 g/kg body weight in 2 ml, 5 mg/kg
  Glucose, 60 min (1 h after glucose administration): 7.2 (2×) and 6.9 and 7.3 and 6.8
[3]
  serum insulin levels at day 7 after the withdrawal: drop in the insulin levels to the value of those of intact/control animals
  serum insulin levels on the first day after the drug withdrawal: significant increase

## N[C@@H](CC(=O)[O-])C(=O)[O-].[Zn+2] [^64Zne, zinc aspartate]
[4]
  effect on albumin values: no effect
[5]; rats fed a standard diet, hematoxylin & eosin
  morphology of exocrine cells of the pancreas: did not change
[5]; rats having obesity
  cross-sectional surface area of the islets of Langerhans, increase compared with the obesity group: 43%
  cross-sectional surface area of the islets of Langerhans, lower than the control value: 29%
[5]; rats that ate a standard diet
  cross-sectional surface area of the islets of Langerhans, decrease compared with the control group: 39%
[6]
  area of islets of Langerhans compared to the control group and the zinc acetate group: significant increase
[1]
  accumulation of zinc in the kidney and liver tissues: significantly increased
[7]
  alkaline phosphatase activity: higher than both in the group of diet-induced obesity models and in the control group
[2]; listed as zinc isotope
  glucose levels in the glucose tolerance test compared with the control group: drop in glucose concentration; also recorded: decrease in glucose levels
[2]; listed as zinc isotope ^64Zn
  glucose levels in the glucose tolerance test compared with the control group: significant decrease in glucose levels
[8]
  Catalase activity: 0.48±0.02 µmol H2O2/min per mg protein
[9]; obesity group treated
  area of collagen fiber deposits, increased by a factor versus the control group: 6
[9]; rats eating a standard diet
  increase in the area of deposition of collagen fibers: 2 fold
[10]; C+zinc: standard diet
  Amount of food consumed: 32 g/day
  Calorie content of food: 490 kJ/day
  Weight gain as of the end of the experiment: 59%
  BMI: 0.59 g/cm^2
[10]; DIO+zinc: high-fat diet
  Amount of food consumed: 29 g/day
  Calorie content of food: 823 kJ/day
  Weight gain as of the end of the experiment: 62%
  BMI: 0.65 g/cm^2
[11]; C+zinc: standard diet
  Indoleamine dioxygenase activity: 1178 ± 267 µmol/mg protein
  Monoamine oxidase activity: 0.91 ±0.06 RU/mg protein
  Serotonin: 25.51 ± 2.71 µg/g
  Tryptophan: 87.71 ± 3.41 µg/g
  Tryptophan decarboxylase activity: 1.63 ± 0.41 RU/mg protein
  Tryptophan hydroxylase activity: 291 ± 29 RU/mg protein
[11]; DIO+zinc: high-fat diet
  Indoleamine dioxygenase activity: 2007 ± 175 µmol/mg protein
  Monoamine oxidase activity: 0.99±0.08 RU/mg protein
  Serotonin: 20.1 ± 3.21 µg/g
  Tryptophan: 31.56 ± 2.14 µg/g
  Tryptophan decarboxylase activity: 1.86 ± 0.37 RU/mg protein
  Tryptophan hydroxylase activity: 286 ± 17 RU/mg protein
[3]
  serum insulin levels at day 7 after the withdrawal: increased
  serum insulin levels on the first day after the drug withdrawal: slightly higher than in the group of intact animals
[3]; listed as zinc isotope
  serum insulin levels at day 7 after the withdrawal: significant increase
[12]
  Superoxide dismutase activity: 4.5±0.43 # RU/ min per mg protein
[13]
  levels of triglycerides, cholesterol and free fatty acids in the serum: almost at the same level as in the control group
[14]
  Aldehyde-dinitrophenyl-hydrazones: 0.253±0.012 nmol/mg protein
  Ketone-dinitrophenyl-hydrazones: 0.200±0.024 nmol/mg protein
[15]; C+zinc: standard diet
  IFN-γ level: 5.0±0.8 RU/mg protein
  IL-1 level: 4.9±1.7 RU/mg protein
  IL-4 level: 5.0±0.4 RU/mg protein
  IL-6 level: 5.4±0.3 RU/mg protein
  IL-10 level: 4.9±0.2 RU/mg protein
  IL-12 level: 1.0±0.03 RU/mg protein
  TGF level: 5.1±0.6 RU/mg protein
[15]; DIO+zinc: high-fat diet
  IFN-γ level: 4.9±0.8 RU/mg protein
  IL-1 level: 5.8±1.8 RU/mg protein
  IL-4 level: 5.1±1.2 RU/mg protein
  IL-6 level: 6.1±0.7 RU/mg protein
  IL-10 level: 5.8±0.8 RU/mg protein
  IL-12 level: 1.99±0.01 RU/mg protein
  TGF level: 5.2±0.9 RU/mg protein
[16]; C+zinc: standard diet
  Glucose levels: 4.7 ± 0.2 mmol/L
[16]; DIO+zinc: high-fat diet
  Glucose levels: 4.9 ± 0.2 mmol/L
[17]; C+zinc: standard diet
  Indoleamine dioxygenase activity: 2150 ± 231 µmol/mg protein
  Monoamine oxidase activity: 3.82 ±0.07 RU/mg protein
  Serotonin: 7.41 ± 0.54 µg/g
  Tryptophan: 154.7 ± 13.6 µg/g
  Tryptophan decarboxylase activity: 0.79 ± 0.22 RU/mg protein
  Tryptophan hydroxylase activity: 375 ± 61 RU/mg protein
[17]; DIO+zinc: high-fat diet
  Indoleamine dioxygenase activity: 1768 ± 274 µmol/mg protein
  Monoamine oxidase activity: 1.72 ±0.03 RU/mg protein
  Serotonin: 9.73 ± 0.82 µg/g
  Tryptophan: 89.4 ± 8.99 µg/g
  Tryptophan decarboxylase activity: 0.78 ± 0.19 RU/mg protein
  Tryptophan hydroxylase activity: 253 ± 58 RU/mg protein
[18]; C+zinc: standard diet
  IFN-γ level: 4.6±0.6 RU/mg protein
  IL-1 level: 3.5±0.7 RU/mg protein
  IL-4 level: 4.6±0.8 RU/mg protein
  IL-6 level: 4.3±0.2 RU/mg protein
  IL-10 level: 4.1±0.5 RU/mg protein
  IL-12 level: 0.3±0.04 RU/mg protein
  TGF level: 4.1±0.4 RU/mg protein
[18]; DIO+zinc: high-fat diet
  IFN-γ level: 4.1±1.2 RU/mg protein
  IL-1 level: 4.2±0.4 RU/mg protein
  IL-4 level: 5.6±1.6 RU/mg protein
  IL-6 level: 5.1±0.4 RU/mg protein
  IL-10 level: 6.8±1.1 # RU/mg protein
  IL-12 level: 2.4±0.06 RU/mg protein
  TGF level: 5.7±0.3 # RU/mg protein
[18]; DIO+zinc: high-fat diet, listed as Zn-64 stable isotope in aspartate form
  TGF level: 5.7±0.3 RU/mg protein
[19]
  body weight of rats: significant increase
[20]; C+zinc: standard diet
  Monoamine oxylase activity: 2.52±0.03 RU/mg protein
  Serotonin: 10.16 ± 0.62 µg/g
  Tryptophan: 56.12 ± 7.58 µg/g
[20]; DIO+zinc: high-fat diet
  Monoamine oxylase activity: 3.11±0.08 RU/mg protein
  Serotonin: 6.33 ± 0.51 µg/g
  Tryptophan: 66.65 ± 9.62 µg/g
